In paper PMC9369794 (Molecules, 2022):

Key:
Water dispersibility = format: physicochemical; conditions: distilled water, sonication
Protocol: About 2 mg of the examined substance was dispersed in 40 mL of distilled water and the suspension was sonicated for 2 min. The addition of water was continued with 10 mL portions, after each portion the mixture was sonicated for 2 min. This process was continued till a homogenous solution was observed by naked eye. Then, the solution was let to stand for an hour to inspect any precipitate formation, but no changes occurred in any of the cases.

[1] = Hydrodynamic diameter and colloidal stability of aggregates by dynamic light scattering; format: physicochemical; conditions: for mean size (hydrodynamic diameter) / zeta potential: 37 °C; for PDI: sd^2/mean size^2
Protocol: In contrary, all spectra gave a hypsochromic shift and loss of fine-structure when the DMSO solutions were diluted with PBS, which refers to the formation of H-type (card-pack) aggregates (Figures S1–S12). Since DMSO-containing aqueous systems are more suitable for biological studies, we examined these solution by dynamic light scattering (DLS) spectroscopy to gain more information about the particles. The concentrations of the examined solutions were the same as used in the ABTS/TEAC measurements (0.3125–5.00 μM, see next section).
Size determination of aggregates and the colloidal stability of the sample dispersions were determined by dynamic light scattering measurements, where the hydrodynamic diameter of particles, and zeta potential values were collected. The number-weighted size distribution indicated one main peak in each case, the polydispersity index (PDI) was calculated as sd^2/mean size^2. For the particle size analysis Malvern Zetasizer Nano S instrument and for the zeta potential determination Malvern Zetasizer Nano Z instrument were used (Malvern Panalytical Ltd., Great Malvern, Worcestershire, UK). The measurements were carried out in autocorrelation mode, and the following parameters were kept constant: scattering angle 173°, attenuator 11 and its factor 0.0146, measurement position 4.65 mm. The concentrations of sample dispersions were between 0.3125 and 5 µM. The dispersion medium was PBS. Each samples was examined after 6 min incubation period at 37 °C.

[2] = TEAC assay using ABTS radical; conditions: 6 min, ratio of slopes to trolox (melatonin dissolved in EtOH); for TEAC from DMSO: stock in DMSO diluted with PBS pH 7.4, 37 °C; for TEAC from THF: stock in THF diluted with PBS pH 7.4, 37 °C
Protocol: This method uses a redox reaction between ABTS^•+ radical cation and the examined antioxidants, which act as the reducing agents. […] As the carotenoids and the conjugates are poorly soluble in water, they were dissolved first either in small amounts of freshly distilled tetrahydrofuran (THF) or in dimethylsulfoxide (DMSO), and these stock solutions were diluted with phosphate-buffered saline (PBS) to the final nominal concentration.
The TEAC values were determined in isotonic phosphate buffer of pH 7.4. The buffer solution was made by dissolving 9.55 g of DPBS powder in distilled water to form 1L of solution (composition: 0.138 M NaCl, 0.0027 M KCl, 0.0081 M Na2HPO4, 0.0015 M KH2PO4). The assay was performed according to a literature process with slight modifications. The ABTS^•+ radical cation was produced by reacting 7 mM 2,2′-azino-bis(3-ethylbenzothiazoline-6-sulfonic acid) and 2.45 mM potassium persulfate in water. The stock ABTS^•+ solution was prepared 12–16 h before the experiments, and stored at room temperature in dark. The absorbance of the ABTS^•+ solution was set to 0.70 ± 0.05 at 734 nm by a ca. 100-fold dilution with phosphate-buffered saline (PBS). […] The stock solutions were diluted with PBS such that equal amounts of the diluted solutions were added to the ABTS^•+ reagent to obtain final antioxidants concentrations of 0.3125, 0.625, 1.25, 2.50, 3.75, 5 μM, respectively. In the blank (0 μM), the solutions of the antioxidants were substituted with THF or DMSO.
The antioxidants were incubated with ABTS^•+ solution at 37 °C for 6 min. During the reaction of ABTS^•+ with the antioxidants the absorbance of the solution decreases. The percentage inhibition of absorbance at 734 nm was calculated as (A0 − Aantioxidant)/A0, where A0 is the absorbance of the ABTS^•+ solution and Aantioxidant is the absorbance measured after the addition of the antioxidant. The determinations were carried out at each concentration in triplicate. The calculated values were plotted against the final concentration of the antioxidants. The slopes of the curves were compared with that for trolox, the TEAC value is the ratio of the slopes for the antioxidant and for trolox.

[3] = FRAP assay for the antioxidant capacity; set-up: key to FRAP: slope of concentration-absorbance line divided by Trolox slope; conditions: stock in THF, acetate buffer pH 3.0, 37 °C, 15 min; ratio of slopes to trolox (melatonin in EtOH)
Protocol: In the FRAP method the antioxidant reduces Fe^3+ to Fe^2+ in an acidic medium. These experiments were performed in an acetate buffer of pH 3.0, the stock solutions of the examined antioxidants were prepared in THF. The antioxidant capacities were compared to that of Trolox as a standard, just like in the ABTS assays.
A modified literature process was used. The FRAP reagent should also be prepared freshly each day. 2,4,6-Tris(2-pyridyl)-s-triazin (TPTZ) was dissolved in a 200 mM HCl solution and diluted with water to get a final 40 mM HCl and 10 mM TPTZ concentration. For the preparation of the FRAP reagent 30 mL of 20 mM FeCl3 solution and 30 mL of 10 mM TPTZ solution were mixed, and 300 mL of 300 mM acetate buffer with pH 3.0 was added (a pH lower than usual was used to avoid the precipitation of the TPTZ). The FRAP reagent was incubated at 37 °C for 15 min. 150 μL of antioxidant dissolved in THF was mixed with 2.85 mL FRAP reagent solution, and incubated at 37 °C for 15 min in dark. Measurements were carried out at each antioxidant concentration (0, 7.5; 10; 12.5; 15; 17.5 μM final concentration) in triplicate. In the 0 μM solution the antioxidant solution was substituted with acetate buffer (pH 3.0). The FRAP was determined at 600 nm: the absorbance values were plotted as a function of concentration of the sample compounds and that of Trolox for the standard reference data. The FRAP values were calculated as in the ABTS assays, i.e., the slope of the concentration-absorbance lines for the carotenoid derivatives was divided by that for the trolox.

[4] = Study of aggregation by UV-Vis spectrophotometry; format: physicochemical; conditions: for change of UV spectrum with increasing ratio of PBS: starting from THF solutions
Excerpt: It has been known for a long while that carotenoids or their derivatives can be prone to supramolecular organization in water or water-organic solvent mixtures. This behaviour is especially interesting because this higher organization can modulate or alter biological properties of carotenoids, as well [40]. A tendency to form supramolecular structures can be tested by recording the UV spectra in an organic solvent and increasing the ratio of water in the sample. […] We have some recent experience of such behaviour of carotenoid-flavonoid conjugates.
All of our adducts were tested with the method above using tetrahydrofurane (THF) or dimethylsulfoxide (DMSO) with increasing ratio of phosphate-buffered saline (PBS), which was the medium of the antioxidant measurements. […]
1. Study of Aggregation by UV-Vis Spectrophotometry
Starting from THF solutions: each conjugate was dissolved in freshly distilled THF and the solutions were diluted
either with THF or THF-PBS mixtures to obain final solutions of identical carotenoid concentration. […]
Figure S1. UV-spectra of 8’-apo-β-carotenol succinate ( 6) ( a) in THF and in THF-PBS mixtures ( 1:1 , 1:3); (b) in DMSO
Figure S2. UV-spectra of zeaxanthin bissuccinate ( 7) ( a) in THF and in THF-PBS mixtures ( 1:1 , 1:3); (b) in DMSO and
Figure S3. UV-spectra of zeaxanthin monosuccinate ( 11) ( a) in THF and in THF-PBS mixtures ( 1:1 , 1:3); (b) in DMSO […]

[5] = 0.3125 μM in PBS from DMSO stock
[6] = 0.625 μM in PBS from DMSO stock

Water Dispersibility (Water dispersibility) | mean size (hydrodynamic diameter) [1, 5] [nm] | zeta potential [1, 5] [mV] | PDI ([1]; 0.3125 μM in PBS) | mean size (hydrodynamic diameter) [1, 6] [nm] | zeta potential [1, 6] [mV] | PDI ([1]; 0.625 μM in PBS) | mean size (hydrodynamic diameter) ([1]; 1.25 μM in PBS from DMSO stock) [nm] | zeta potential ([1]; 1.25 μM in PBS from DMSO stock) [mV] | PDI ([1]; 1.25 μM in PBS) | zeta potential ([1]; 2.5 μM in PBS from DMSO stock) [mV] | zeta potential ([1]; 3.75 μM in PBS from DMSO stock) [mV] | mean size (hydrodynamic diameter) ([1]; 5 μM in PBS from DMSO stock) [nm] | zeta potential ([1]; 5 μM in PBS from DMSO stock) [mV] | PDI ([1]; 5 μM in PBS) | change of UV spectrum with increasing ratio of PBS [4] | mean size (hydrodynamic diameter) ([1]; 2.5 μM in PBS from DMSO stock) [nm] | SMILES | TEAC from DMSO [2] | TEAC from THF [2] | FRAP [3] | other results
less than 0.6 mg/100 mL | 241.5 | 22.6 | 0.0186 | 10.71 | 20.1 | 0.0159 | 28.78 | 31.0 | 0.0354 | 51.3 | 2.7 | 19.31 | 0.0 | 0.0298 | did not cause much change |  | CC1=C(/C=C/C(C)=C/C=C/C(C)=C/C=C/C=C(C)/C=C/C=C(C)/C=C/C(=O)[C@]2(C)C[C@@H](OC(=O)CCC(=O)O)CC2(C)C)C(C)(C)C[C@H](OC(=O)CCC(=O)O)C1 [Compound 9, Capsanthin bissuccinate] | 1.66 | 2.297 | 0.189 | 
1.5 mg/100 mL | 453.5 | 103.0 | 0.0235 | 215.4 | 44.4 | 0.0320 | 263.3 | 89.6 | 0.0608 | 0.0 | 0.0 | 29.2 | 20.3 | 0.0249 | did not cause much change | 123.1 | CC1=C[C@H](OC(=O)CCC(=O)O)CC(C)(C)[C@H]1/C=C/C(C)=C/C=C/C(C)=C/C=C/C=C(C)/C=C/C=C(C)/C=C/C1=C(C)C[C@@H](OC(=O)CCC(=O)O)CC1(C)C [Compound 10, Lutein bissuccinate] | 1.49 | 2.356 | 0.184 | PDI ([1]; 2.5 μM in PBS): 0.0108; mean size (hydrodynamic diameter) ([1]; 3.75 μM in PBS from DMSO stock): 143.8 nm; PDI ([1]; 3.75 μM in PBS): 0.0121
less than 0.3 mg/100 mL | 30.98 | 51.7 | 0.0256 | 277.80 | 123.0 | 0.0264 | 25.09 | 80.5 | 0.0310 | 80.6 | 77.3 | 150.00 | −23.5 | 0.0297 | bathochromic shift | 32.93 | CC1=C(/C=C/C(C)=C/C=C/C(C)=C/C=C/C=C(C)/C=C/C=C(C)/C=C/C2=C(C)C[C@@H](OC(=O)CCC(=O)O)CC2(C)C)C(C)(C)C[C@H](O)C1 [Compound 11, Zeaxanthin monossuccinate] | 0.81 | 1.056 | 0.145 | PDI ([1]; 2.5 μM in PBS): 0.0420; mean size (hydrodynamic diameter) ([1]; 3.75 μM in PBS from DMSO stock): 17.71 nm; PDI ([1]; 3.75 μM in PBS): 0.1357; type of aggregates formed ([4]; from THF:aqueous solutions): J-type (head-to-tail) aggregates
 | 148.60 | −22.0 | 0.0199 | 212.00 | −22.8 | 0.0397 | 127.50 | −24.5 | 0.0726 | −29.5 | −31.4 | 201.10 | −37.5 | 0.1788 | did not cause much change | 93.29 | COc1ccc2[nH]cc(CCNC(=O)CNC(=O)CCC(=O)OC/C(C)=C/C=C/C(C)=C/C=C/C=C(C)/C=C/C=C(C)/C=C/C3=C(C)CCCC3(C)C)c2c1 [Compound 18, 8′-Apo-β-carotenol-melatonin conjugate] | 3.00 | 2.891 | 0.123 | PDI ([1]; 2.5 μM in PBS): 0.1229; mean size (hydrodynamic diameter) ([1]; 3.75 μM in PBS from DMSO stock): 182.80 nm; PDI ([1]; 3.75 μM in PBS): 0.1662; melting point: 123 to 124 °C
